# Results from patent publication US9326506B2, “Preparation method, agricultural composition and applications of natural brassinolide analogs” (CHENGDU NEWSUN CROPSCIENCE CO., LTD, priority 2012, dated 2016).
# Test system: rice
# Assay: Low temperature assay on rice seedlings
# Type: in vivo
# Experimental: According to a low temperature assay, we measured parameters including plant height, number of leaf, area of leaf, number of tiller, weight of root at low temperature to completely determine effects of the natural brassinolide analogues on the resistance to low temperature of a plant.
# The natural brassinolide analogues, BR1, BR2, BR3, BR4, BR5 and BR6, used herein, were those prepared by the method of Example 1. Respectively the analogues were dissolved into 95% (V/V) ethanol solution, and then diluted with pure water to 1 mg/L, 0.1 mg/L, 0.01 mg/L, 0.001 mg/L and 0.0001 mg/L. In addition, pure water was used as a control.
# After rice seeds were disinfected by using 5% sodium hypochlorite solution treatment, they were rinsed with distilled water until their pH>7, placed into a petri dish in a dark incubator, and cultured by using water at 30° C.±2° C. for 9 days. Then respectively the nine-day-old etiolated seedlings of rice were immersed in the above solutions containing different concentrations of the natural brassinolide analogues or pure water, and cultured at the temperature of 1° C., 2° C., 3° C., 4° C. and 5° C. for 24 hr. The parameters including plant height, area of leaf and weight of root after 3, 6, 9 and 12 days and number of leaf and number of tiller after 12 days were measured.
smiles,measurement,setting,value
CC[C@@H](C(C)C)[C@@H](O)[C@H](O)[C@@H](C)[C@H]1CCC2C3COC(=O)C4C[C@H](O)[C@H](O)C[C@]4(C)C3CC[C@@]21C (stereo partly shown) [BR2],Height,"0.01 mg/l, 3 °C, 9 days",7.7 cm
same,Weight of root,"0.01 mg/l, 3 °C, 9 days",2.9 g
same,Area of leaf,"0.01 mg/l, 3 °C, 12 days",13.2 cm^2
same,Height,"0.01 mg/l, 3 °C, 12 days",7.9 cm
same,Number of leaf,"0.01 mg/l, 3 °C, 12 days",3
same,Number of tiller,"0.01 mg/l, 3 °C, 12 days",2
same,Weight of root,"0.01 mg/l, 3 °C, 12 days",2.9 g
same,Area of leaf,"0.01 mg/l, 4 °C, 3 days",10.8 cm^2
same,Height,"0.01 mg/l, 4 °C, 3 days",7.1 cm
same,Weight of root,"0.01 mg/l, 4 °C, 3 days",2.5 g
same,Area of leaf,"0.01 mg/l, 4 °C, 6 days",12.4 cm^2
same,Height,"0.01 mg/l, 4 °C, 6 days",7.5 cm
same,Weight of root,"0.01 mg/l, 4 °C, 6 days",2.6 g
same,Area of leaf,"0.01 mg/l, 4 °C, 9 days",13.2 cm^2
same,Height,"0.01 mg/l, 4 °C, 9 days",7.7 cm
same,Weight of root,"0.01 mg/l, 4 °C, 9 days",2.9 g
same,Area of leaf,"0.01 mg/l, 4 °C, 12 days",13.5 cm^2
same,Height,"0.01 mg/l, 4 °C, 12 days",7.8 cm
same,Number of leaf,"0.01 mg/l, 4 °C, 12 days",3
same,Number of tiller,"0.01 mg/l, 4 °C, 12 days",2
same,Weight of root,"0.01 mg/l, 4 °C, 12 days",3.0 g
same,Area of leaf,"0.01 mg/l, 5 °C, 3 days",10.3 cm^2
same,Height,"0.01 mg/l, 5 °C, 3 days",7.4 cm
same,Weight of root,"0.01 mg/l, 5 °C, 3 days",2.8 g
same,Area of leaf,"0.01 mg/l, 5 °C, 6 days",13.1 cm^2
same,Height,"0.01 mg/l, 5 °C, 6 days",7.6 cm
same,Weight of root,"0.01 mg/l, 5 °C, 6 days",3.0 g
same,Area of leaf,"0.01 mg/l, 5 °C, 9 days",16.4 cm^2
same,Height,"0.01 mg/l, 5 °C, 9 days",8 cm
same,Weight of root,"0.01 mg/l, 5 °C, 9 days",3.4 g
same,Area of leaf,"0.01 mg/l, 5 °C, 12 days",17 cm^2
same,Height,"0.01 mg/l, 5 °C, 12 days",8.2 cm
same,Number of leaf,"0.01 mg/l, 5 °C, 12 days",4
same,Number of tiller,"0.01 mg/l, 5 °C, 12 days",3
same,Weight of root,"0.01 mg/l, 5 °C, 12 days",3.9 g
same,Area of leaf,"0.1 mg/l, 1 °C, 3 days",10.1 cm^2
same,Height,"0.1 mg/l, 1 °C, 3 days",7.0 cm
same,Weight of root,"0.1 mg/l, 1 °C, 3 days",2.8 g
same,Area of leaf,"0.1 mg/l, 1 °C, 6 days",11 cm^2
same,Height,"0.1 mg/l, 1 °C, 6 days",7.2 cm
same,Weight of root,"0.1 mg/l, 1 °C, 6 days",3.0 g
same,Area of leaf,"0.1 mg/l, 1 °C, 9 days",12.1 cm^2
same,Height,"0.1 mg/l, 1 °C, 9 days",7.3 cm
same,Weight of root,"0.1 mg/l, 1 °C, 9 days",3.4 g
same,Area of leaf,"0.1 mg/l, 1 °C, 12 days",13.4 cm^2
same,Height,"0.1 mg/l, 1 °C, 12 days",7.4 cm
same,Number of leaf,"0.1 mg/l, 1 °C, 12 days",3
same,Number of tiller,"0.1 mg/l, 1 °C, 12 days",3
same,Weight of root,"0.1 mg/l, 1 °C, 12 days",3.6 g
same,Area of leaf,"0.1 mg/l, 2 °C, 3 days",10.4 cm^2
same,Height,"0.1 mg/l, 2 °C, 3 days",7.1 cm
same,Weight of root,"0.1 mg/l, 2 °C, 3 days",2.8 g
same,Area of leaf,"0.1 mg/l, 2 °C, 6 days",11.2 cm^2
same,Height,"0.1 mg/l, 2 °C, 6 days",7.3 cm
same,Weight of root,"0.1 mg/l, 2 °C, 6 days",3.0 g
same,Area of leaf,"0.1 mg/l, 2 °C, 9 days",12.6 cm^2
same,Height,"0.1 mg/l, 2 °C, 9 days",7.3 cm
same,Weight of root,"0.1 mg/l, 2 °C, 9 days",3.1 g
same,Area of leaf,"0.1 mg/l, 2 °C, 12 days",13.6 cm^2
same,Height,"0.1 mg/l, 2 °C, 12 days",7.4 cm
same,Number of leaf,"0.1 mg/l, 2 °C, 12 days",3
same,Number of tiller,"0.1 mg/l, 2 °C, 12 days",3
same,Weight of root,"0.1 mg/l, 2 °C, 12 days",3.2 g
same,Area of leaf,"0.1 mg/l, 3 °C, 3 days",10.5 cm^2
same,Height,"0.1 mg/l, 3 °C, 3 days",7.4 cm
same,Weight of root,"0.1 mg/l, 3 °C, 3 days",2.5 g
same,Area of leaf,"0.1 mg/l, 3 °C, 6 days",12 cm^2
same,Height,"0.1 mg/l, 3 °C, 6 days",7.4 cm
same,Weight of root,"0.1 mg/l, 3 °C, 6 days",2.7 g
same,Area of leaf,"0.1 mg/l, 3 °C, 9 days",12.6 cm^2
same,Height,"0.1 mg/l, 3 °C, 9 days",7.8 cm
same,Weight of root,"0.1 mg/l, 3 °C, 9 days",2.9 g
same,Area of leaf,"0.1 mg/l, 3 °C, 12 days",13.4 cm^2
same,Height,"0.1 mg/l, 3 °C, 12 days",7.9 cm
same,Number of leaf,"0.1 mg/l, 3 °C, 12 days",3
same,Number of tiller,"0.1 mg/l, 3 °C, 12 days",2
same,Weight of root,"0.1 mg/l, 3 °C, 12 days",2.9 g
same,Area of leaf,"0.1 mg/l, 4 °C, 3 days",10.8 cm^2
same,Height,"0.1 mg/l, 4 °C, 3 days",7.5 cm
same,Weight of root,"0.1 mg/l, 4 °C, 3 days",2.5 g
same,Area of leaf,"0.1 mg/l, 4 °C, 6 days",12.1 cm^2
same,Height,"0.1 mg/l, 4 °C, 6 days",7.5 cm
same,Weight of root,"0.1 mg/l, 4 °C, 6 days",2.7 g
same,Area of leaf,"0.1 mg/l, 4 °C, 9 days",13.4 cm^2
same,Height,"0.1 mg/l, 4 °C, 9 days",8 cm
same,Weight of root,"0.1 mg/l, 4 °C, 9 days",2.9 g
same,Area of leaf,"0.1 mg/l, 4 °C, 12 days",13.8 cm^2
same,Height,"0.1 mg/l, 4 °C, 12 days",8.1 cm
same,Number of leaf,"0.1 mg/l, 4 °C, 12 days",3
same,Number of tiller,"0.1 mg/l, 4 °C, 12 days",2
same,Weight of root,"0.1 mg/l, 4 °C, 12 days",3.1 g
same,Area of leaf,"0.1 mg/l, 5 °C, 3 days",11 cm^2
same,Height,"0.1 mg/l, 5 °C, 3 days",7.5 cm
same,Weight of root,"0.1 mg/l, 5 °C, 3 days",2.9 g
same,Area of leaf,"0.1 mg/l, 5 °C, 6 days",12.9 cm^2
same,Height,"0.1 mg/l, 5 °C, 6 days",7.6 cm
same,Weight of root,"0.1 mg/l, 5 °C, 6 days",3.2 g
same,Area of leaf,"0.1 mg/l, 5 °C, 9 days",16.8 cm^2
same,Height,"0.1 mg/l, 5 °C, 9 days",8.1 cm
same,Weight of root,"0.1 mg/l, 5 °C, 9 days",3.5 g
same,Area of leaf,"0.1 mg/l, 5 °C, 12 days",19 cm^2
same,Height,"0.1 mg/l, 5 °C, 12 days",8.3 cm
same,Number of leaf,"0.1 mg/l, 5 °C, 12 days",3
same,Number of tiller,"0.1 mg/l, 5 °C, 12 days",2
same,Weight of root,"0.1 mg/l, 5 °C, 12 days",4.1 g
same,Area of leaf,"1 mg/l, 1 °C, 3 days",10 cm^2
same,Height,"1 mg/l, 1 °C, 3 days",7.2 cm
same,Weight of root,"1 mg/l, 1 °C, 3 days",2.6 g
same,Area of leaf,"1 mg/l, 1 °C, 6 days",11.2 cm^2
same,Height,"1 mg/l, 1 °C, 6 days",7.3 cm
same,Weight of root,"1 mg/l, 1 °C, 6 days",3.1 g
same,Area of leaf,"1 mg/l, 1 °C, 9 days",12.4 cm^2
same,Height,"1 mg/l, 1 °C, 9 days",7.3 cm
same,Weight of root,"1 mg/l, 1 °C, 9 days",3.2 g
same,Area of leaf,"1 mg/l, 1 °C, 12 days",13 cm^2
same,Height,"1 mg/l, 1 °C, 12 days",7.9 cm
same,Number of leaf,"1 mg/l, 1 °C, 12 days",3
same,Number of tiller,"1 mg/l, 1 °C, 12 days",3
same,Weight of root,"1 mg/l, 1 °C, 12 days",3.7 g
same,Area of leaf,"1 mg/l, 2 °C, 3 days",10.2 cm^2
same,Height,"1 mg/l, 2 °C, 3 days",7.2 cm
same,Weight of root,"1 mg/l, 2 °C, 3 days",2.6 g
same,Area of leaf,"1 mg/l, 2 °C, 6 days",11.7 cm^2
same,Height,"1 mg/l, 2 °C, 6 days",7.2 cm
same,Weight of root,"1 mg/l, 2 °C, 6 days",3.0 g
same,Area of leaf,"1 mg/l, 2 °C, 9 days",12.6 cm^2
same,Height,"1 mg/l, 2 °C, 9 days",7.3 cm
same,Weight of root,"1 mg/l, 2 °C, 9 days",3.2 g
same,Area of leaf,"1 mg/l, 2 °C, 12 days",13 cm^2
same,Height,"1 mg/l, 2 °C, 12 days",8 cm
same,Number of leaf,"1 mg/l, 2 °C, 12 days",3
same,Number of tiller,"1 mg/l, 2 °C, 12 days",3
same,Weight of root,"1 mg/l, 2 °C, 12 days",3.7 g
same,Area of leaf,"1 mg/l, 3 °C, 3 days",10.4 cm^2
same,Height,"1 mg/l, 3 °C, 3 days",7.4 cm
same,Weight of root,"1 mg/l, 3 °C, 3 days",2.5 g
same,Area of leaf,"1 mg/l, 3 °C, 6 days",12 cm^2
same,Height,"1 mg/l, 3 °C, 6 days",7.5 cm
same,Weight of root,"1 mg/l, 3 °C, 6 days",2.6 g
same,Area of leaf,"1 mg/l, 3 °C, 9 days",12.1 cm^2
same,Height,"1 mg/l, 3 °C, 9 days",7.9 cm
same,Weight of root,"1 mg/l, 3 °C, 9 days",2.9 g
same,Area of leaf,"1 mg/l, 3 °C, 12 days",13.2 cm^2
same,Height,"1 mg/l, 3 °C, 12 days",8.1 cm
same,Number of leaf,"1 mg/l, 3 °C, 12 days",3
same,Number of tiller,"1 mg/l, 3 °C, 12 days",2
same,Weight of root,"1 mg/l, 3 °C, 12 days",2.9 g
same,Area of leaf,"1 mg/l, 4 °C, 3 days",10.9 cm^2
same,Height,"1 mg/l, 4 °C, 3 days",7.4 cm
same,Weight of root,"1 mg/l, 4 °C, 3 days",2.5 g
same,Area of leaf,"1 mg/l, 4 °C, 6 days",12.6 cm^2
same,Height,"1 mg/l, 4 °C, 6 days",7.5 cm
same,Weight of root,"1 mg/l, 4 °C, 6 days",2.7 g
same,Area of leaf,"1 mg/l, 4 °C, 9 days",13.2 cm^2
same,Height,"1 mg/l, 4 °C, 9 days",8.0 cm
same,Weight of root,"1 mg/l, 4 °C, 9 days",3.0 g
same,Area of leaf,"1 mg/l, 4 °C, 12 days",14 cm^2
same,Height,"1 mg/l, 4 °C, 12 days",8.2 cm
same,Number of leaf,"1 mg/l, 4 °C, 12 days",3
same,Number of tiller,"1 mg/l, 4 °C, 12 days",2
same,Weight of root,"1 mg/l, 4 °C, 12 days",3.2 g
same,Area of leaf,"1 mg/l, 5 °C, 3 days",11.1 cm^2
same,Height,"1 mg/l, 5 °C, 3 days",7.4 cm
same,Weight of root,"1 mg/l, 5 °C, 3 days",2.9 g
same,Area of leaf,"1 mg/l, 5 °C, 6 days",13.1 cm^2
same,Height,"1 mg/l, 5 °C, 6 days",7.7 cm
same,Weight of root,"1 mg/l, 5 °C, 6 days",3.5 g
same,Area of leaf,"1 mg/l, 5 °C, 9 days",18 cm^2
same,Height,"1 mg/l, 5 °C, 9 days",8.2 cm
same,Weight of root,"1 mg/l, 5 °C, 9 days",3.7 g
same,Area of leaf,"1 mg/l, 5 °C, 12 days",20 cm^2
same,Height,"1 mg/l, 5 °C, 12 days",8.4 cm
same,Number of leaf,"1 mg/l, 5 °C, 12 days",3
same,Number of tiller,"1 mg/l, 5 °C, 12 days",2
same,Weight of root,"1 mg/l, 5 °C, 12 days",4.5 g
